#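 Test compounds were applied to cells in 96-well plates for 48 hours at 5 doses. The concentration for full growth arrest is given as TGI.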
# Assays:
# Assay in all cases: NCI tumour cell line growth inhibition, 48 h
# DMS 114 small cell lung = system: DMS 114 small cell lung
# SNB-78 CNS = system: SNB-78 CNS
# DLD-1 colon = system: DLD-1 colon
# KM20L2 colon = system: KM20L2 colon
# HOP-18 NSCLC = system: HOP-18 NSCLC
# LXFL 529 NSCLC = system: LXFL 529 NSCLC
# XF 498 CNS = system: XF 498 CNS
# P388 leukemia = system: P388 leukemia
# P388/ADR leukemia = system: P388/ADR leukemia
# SN12K1 renal = system: SN12K1 renal
# RXF-631 renal = system: RXF-631 renal
smiles,measurement,setting,value
COC1=CC(=O)C2C(C1=O)[C@@H]1c3ccccc3OC[C@H]21 (some centres not stated),TGI,DMS 114 small cell lung,> 100 µM
same,TGI,SNB-78 CNS,> 100 µM
same,TGI,DLD-1 colon,> 100 µM
same,TGI,KM20L2 colon,> 100 µM
same,TGI,HOP-18 NSCLC,> 100 µM
same,TGI,LXFL 529 NSCLC,> 100 µM
CCN1CCC(O)(/C=C/c2ccc(Cl)cc2)C(C(=O)/C=C/c2ccc(Cl)cc2)C1 (configuration not stated),TGI,DMS 114 small cell lung,> 100 µM
same,TGI,SNB-78 CNS,> 100 µM
same,TGI,XF 498 CNS,> 100 µM
same,TGI,DLD-1 colon,33.8 µM
same,TGI,KM20L2 colon,99.3 µM
same,TGI,LXFL 529 NSCLC,28 µM
O=c1cc(-c2cccc(Br)c2)[nH]c2cc3c(cc12)OCO3,TGI,DMS 114 small cell lung,11 µM
same,TGI,SNB-78 CNS,20.5 µM
same,TGI,XF 498 CNS,14.5 µM
same,TGI,DLD-1 colon,31.2 µM
same,TGI,HOP-18 NSCLC,46.7 µM
same,TGI,LXFL 529 NSCLC,18.6 µM
C/C=C1/C(=O)O[C@]23C=C[C@@H]4C(C(=O)OC)=CO[C@H](O[C@@H]12)[C@@H]43,TGI,DMS 114 small cell lung,2.82 µM
same,TGI,P388 leukemia,1.83 µM
same,TGI,SNB-78 CNS,23.6 µM
same,TGI,XF 498 CNS,3.37 µM
same,TGI,DLD-1 colon,2.94 µM
same,TGI,KM20L2 colon,15.4 µM
same,TGI,P388/ADR leukemia,2.41 µM
same,TGI,HOP-18 NSCLC,10.4 µM
same,TGI,SN12K1 renal,3.22 µM
CCOC(=O)C1C(=O)c2cccc(OC)c2C2COC(=O)N12 (configuration not stated),TGI,DMS 114 small cell lung,> 100 µM
same,TGI,XF 498 CNS,> 100 µM
same,TGI,DLD-1 colon,> 100 µM
same,TGI,KM20L2 colon,> 100 µM
same,TGI,HOP-18 NSCLC,> 100 µM
same,TGI,RXF-631 renal,> 100 µM
same,TGI,LXFL 529 NSCLC,> 100 µM
Nc1nc2c(ncn2CC(CO)CC(c2ccccc2)P(=O)(O)O)c(=O)[nH]1 (configuration not stated),TGI,DMS 114 small cell lung,> 100 µM
same,TGI,SNB-78 CNS,> 100 µM
same,TGI,XF 498 CNS,> 100 µM
same,TGI,DLD-1 colon,> 100 µM
same,TGI,KM20L2 colon,> 100 µM
same,TGI,HOP-18 NSCLC,> 100 µM
same,TGI,LXFL 529 NSCLC,> 100 µM
COc1cc2c(cc1O)N=C[C@@H]1CCC(O)N1C2=O (mixture of isomers),TGI,DMS 114 small cell lung,1.41 µM
same,TGI,P388 leukemia,9.2 µM
same,TGI,SNB-78 CNS,46.3 µM
same,TGI,XF 498 CNS,1.2 µM
same,TGI,DLD-1 colon,13.5 µM
same,TGI,KM20L2 colon,24.9 µM
same,TGI,P388/ADR leukemia,5.15 µM
same,TGI,HOP-18 NSCLC,3.39 µM
same,TGI,SN12K1 renal,25 µM
Cc1nc2c(s/c(=N\N)n2-c2ccccc2)c(=O)n1C,TGI,DMS 114 small cell lung,> 100 µM
same,TGI,SNB-78 CNS,> 100 µM
same,TGI,XF 498 CNS,> 100 µM
same,TGI,KM20L2 colon,> 100 µM
same,TGI,LXFL 529 NSCLC,> 100 µM
NCCSc1nc(N)c2ncn(C3OC(CO)C(O)C3O)c2n1 (configuration not stated),TGI,DMS 114 small cell lung,> 100 µM
same,TGI,SNB-78 CNS,> 100 µM
same,TGI,XF 498 CNS,> 100 µM
same,TGI,DLD-1 colon,> 100 µM
same,TGI,KM20L2 colon,> 100 µM
same,TGI,HOP-18 NSCLC,> 100 µM
C#CC1(O)CC(c2ccccc2)N(C)C(c2ccccc2)C1 (configuration not stated),TGI,DMS 114 small cell lung,> 100 µM
same,TGI,SNB-78 CNS,> 100 µM
same,TGI,KM20L2 colon,> 100 µM
same,TGI,RXF-631 renal,> 100 µM
same,TGI,LXFL 529 NSCLC,> 100 µM
O=C1NC(=O)C2(CCc3ccc(N(CCCl)CCCl)cc32)N1 (configuration not stated),TGI,DMS 114 small cell lung,26 µM
same,TGI,P388 leukemia,15.5 µM
same,TGI,SNB-78 CNS,> 100 µM
same,TGI,DLD-1 colon,> 81.8 µM
same,TGI,KM20L2 colon,42.8 µM
same,TGI,P388/ADR leukemia,36.7 µM
same,TGI,HOP-18 NSCLC,64.4 µM
same,TGI,SN12K1 renal,37.1 µM
O=c1[nH]c(Br)nc2c(N3CCCCC3)c[nH]c12,TGI,DMS 114 small cell lung,> 100 µM
same,TGI,SNB-78 CNS,> 100 µM
same,TGI,XF 498 CNS,> 100 µM
same,TGI,DLD-1 colon,> 100 µM
same,TGI,KM20L2 colon,> 100 µM
same,TGI,HOP-18 NSCLC,> 100 µM
same,TGI,LXFL 529 NSCLC,> 100 µM
Cc1ccc(C(=O)C(C)N)cc1C (configuration not stated),TGI,DMS 114 small cell lung,> 100 µM
same,TGI,XF 498 CNS,> 100 µM
same,TGI,DLD-1 colon,> 100 µM
same,TGI,KM20L2 colon,> 100 µM
same,TGI,RXF-631 renal,> 100 µM
same,TGI,LXFL 529 NSCLC,> 100 µM

# Reference: PubChem BioAssay (NCI)
